By Kd is commonly meant the concentration at which binding is half-saturated. A higher Kd goes with a looser complex.

For this assay, the target named is T1, Heat shock factor 1 (HSF1) (Homo sapiens, UniProt Q00613).
T1 sequence (Q00613 15-120 limits assumed): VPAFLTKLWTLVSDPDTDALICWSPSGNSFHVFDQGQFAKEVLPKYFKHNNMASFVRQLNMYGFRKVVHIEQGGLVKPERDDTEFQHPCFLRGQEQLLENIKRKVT
The assay is described as follows: SPR Kd. It is filed as binding.

In turn, `O=C(Nc1ccc(F)cc1)Nc1ccc(Cl)c([N+](=O)[O-])c1` [DTHIB] gave a dissociation constant Kd of 160 nM.

These data come from PMC10571035 (Science translational medicine, 2020).
